Where two headings read alike, the source gives them in different places.

Assay type in all cases: cell-based
In series [1] the test system is HIV-1 (IIIB). Description: Antiviral assay in MT-4 cells. Conditions: Human immunodeficiency virus 1, MT4, 120 h; replication of HIV-1 (IIIB) in MT-4 cells, 5 days incubation, Cell Titer Glo. As to the method:
Example 24: HIV MT-4 Antiviral and Cytotoxicity Assay
Antiviral Assay in MT-4 Cells
Compounds were tested in a high-throughput 384-well assay format for their ability to inhibit the replication of HIV-1 (IIIB) in MT-4 cells. Compounds were serially diluted (1:3) in DMSO on 384-well polypropylene plates and further diluted 200-fold into complete RPMI media (10% FBS, 1% P/S) using the Biotek Micro Flow and Labcyte ECHO acoustic dispenser. Each plate contained up to 8 test compounds, with negative (No Drug Control) and 5 μM AZT positive controls. MT-4 cells were pre-infected with 10 μL of either RPMI (mock-infected) or a fresh 1:250 dilution of HIV-1 IIIB concentrated virus stock. Infected and uninfected MT-4 cells were further diluted in complete RPMI media and added to each plate using a Micro Flow dispenser. After 5 days incubation in a humidified and temperature controlled incubator (37° C.), Cell Titer Glo (Promega) was added to the assay plates and chemiluminescence read using an Envision plate-reader. EC50 values were defined as the compound concentration that causes a 50% decrease in luminescence signal, and were calculated using a sigmoidal dose-response model to generate curve fits.
(ATP-based viability assays read luminescence as a measure of living cells.)

A short description of series [2]: Cytotoxicity assay in MT-4 cells. The conditions noted are these: human; uninfected MT-4 cells, 5 days incubation, Cell Titer Glo. The method, then: Cytotoxicity Assay in MT-4 Cells Assays were performed as above except uninfected MT-4 cells were added to each well containing test compound. In addition, 10 μM puromycin was added to the last column of each assay plate to assess a base level of cytotoxicity.

The subject of series [3] is pLai RLuc reporter virus. Description: HIV MT-4 serum shift antiviral reporter assay. The conditions noted are these: Human immunodeficiency virus 1, MT4, 72 h. As to the method: Example 25: HIV MT-4 Serum Shift Antiviral Reporter Assay
To quantify the amount of protein binding to human serum, compounds were serially diluted (1:3) in DMSO and acoustically transferred onto 384-well assay plates via a Labcyte ECHO robot. Each plate contained up to 8 test compounds, including negative and positive controls, (DMSO, 5 μM AZT respectively). Assay plates were prepared in duplicate, and tested in either CCM (cell culture media) or HS/CCM (human serum/cell culture media). MT-4 cells were first pre-infected with pLai RLuc reporter virus for 2 h at 37° C., then further diluted in either CCM (RPMI media, 10% FBS, 1% P/S) or HS/CCM (RPMI media, 10% FBS, 50% HS, 1% P/S), and subsequently added to each plate using a Biotek Micro Flow dispenser. After a 72-h incubation in a humidified and temperature controlled incubator (37° C.), Renilla Glo (Promega) was added to all assay plates and chemiluminescence read using an Envision plate-reader. EC50 values were defined as the compound concentration that causes a 50% decrease in luminescence signal, and were calculated using a sigmoidal dose-response model to generate curve fits. To determine the amount of protein binding, EC50 fold shifts (or EC50 shifts) were calculated by dividing EC50 (HS/CCM)/EC50 (CCM).

[4] abbreviates: read-out: Antiviral Serum Shift RLuc 50% HS.
The mark [5] stands for this setting: read-out: Antiviral Serum Shift RLuc CCM.

One may read the CC50 as the concentration that lowers cell viability or growth by half. As to `CO[C@@H]1c2c(C(=O)NCc3c(F)cc(F)cc3F)c(=O)c(O)c3n2[C@]2(CCCCN(C2)C3=O)[C@H]1OC` (single isomer, unassigned) [Compound 13-2], in series [1], the EC50 was determined as 1.1 nM. In series [2], the CC50 at 5 days was found to be 24700 nM.

As for `O=C(NCc1c(F)cc(F)cc1F)c1c2n3c(c(O)c1=O)C(=O)N1CCCC[C@@]3(CC2)C1` [Compound 1, (6aR)-11-hydroxy-1,10-dioxo-N-(2,4,6-trifluorobenzyl)-1,3,4,5,6,7,8,10-octahydro-2,6a-methano[1,4]diazonino[9,1,2-cd]indolizine-9-carboxamide], the EC50 in series [1] amounted to 1.35 nM; in series [3] (setting [4]), 8.71 nM; in series [3] (setting [5]), 0.299 nM. Besides, the CC50 at 5 days in series [2] was 4300 nM.

For the compound `CO[C@H]1C[C@@]23CCCCN(C2)C(=O)c2c(O)c(=O)c(C(=O)NCc4c(F)cc(F)cc4F)c1n23` (single isomer, unassigned) [Compound 12-3], the EC50 in series [1] was found to be 4.47 nM. This compound registered a CC50 at 5 days in series [2] of 14800 nM.

For `CO[C@H]1CC[C@H](C)N2C[C@]13CCc1c(C(=O)NCc4c(F)cc(F)cc4F)c(=O)c(O)c(n13)C2=O` [Compound 23-2, (3S,6S,6aR)-11-hydroxy-6-methoxy-3-methyl-1,10-dioxo-N-(2,4,6-trifluorobenzyl)-1,3,4,5,6,7,8,10-octahydro-2,6a-methano[1,4]diazonino[9,1,2-cd]indolizine-9-carboxamide], the EC50 came out at 2.5 nM in series [1], 21 nM in series [3] (setting [4]) and 0.46 nM in series [3] (setting [5]). Also, in series [2], the CC50 at 5 days is 14100 nM.

As for `C[C@@]1(O)C[C@]23CCCCN(C2)C(=O)c2c(O)c(=O)c(C(=O)NCc4c(F)cc(F)cc4F)c1n23` [Compound 17, (6aR,8R)-8,11-dihydroxy-8-methyl-1,10-dioxo-N-(2,4,6-trifluorobenzyl)-1,3,4,5,6,7,8,10-octahydro-2,6a-methano[1,4]diazonino[9,1,2-cd]indolizine-9-carboxamide], the EC50 in series [1] turned out to be 1.2 nM; in series [3] (setting [4]), 1.1 nM; in series [3] (setting [5]), 0.13 nM. This compound also displayed a CC50 at 5 days in series [2] of 3170 nM.

With `O=C(NCc1c(F)cc(F)cc1F)c1c2n3c(c(O)c1=O)C(=O)N1CCCC[C@]3(C1)[C@H](O)[C@H]2O` (single isomer, unassigned) [Compound 11-2], the EC50 in series [3] (setting [4]) is 48.4 nM; in series [3] (setting [5]) it was 1.52 nM.

As for `O=C(NCc1ccc(F)cc1F)c1c2n3c(c(O)c1=O)C(=O)N1CCCC[C@@]3(C[C@H]2O)C1` (single isomer, unassigned) [Compound 10-2], the figures for the EC50 in series [1], in series [3] (setting [4]) and in series [3] (setting [5]) were 1.05 nM, 21.1 nM and 0.417 nM, respectively. The compound also registered a CC50 at 5 days in series [2] of 4120 nM.

As for `O=C(NCc1c(F)cc(F)cc1F)c1c2n3c(c(O)c1=O)C(=O)N1CCCC[C@@]3(C[C@@H]2O)C1` (single isomer, unassigned) [Compound 9-4], the EC50 in series [1] is 0.703 nM; in series [3] (setting [4]) it was 5.19 nM; in series [3] (setting [5]), 0.388 nM. The compound further came in with a CC50 at 5 days in series [2] of 6400 nM.

With `O=C(NCc1c(F)cc(F)cc1F)c1c2n3c(c(O)c1=O)C(=O)N1CCCC[C@]3(C1)[C@@H](O)[C@@H]2O` (single isomer, unassigned) [Compound 11-4], the EC50 is 4.02 nM in series [1], 20.5 nM in series [3] (setting [4]) and 1.02 nM in series [3] (setting [5]). In addition, the cytotoxic concentration (CC50) at 5 days in series [2] came to 50000 nM.

Take `O=C(NCc1ccc(F)cc1F)c1c2n3c(c(O)c1=O)C(=O)N1CCCC[C@]3(CC2)C1` [Compound 4, (6aS)—N-(2,4-difluorobenzyl)-11-hydroxy-1,10-dioxo-1,3,4,5,6,7,8,10-octahydro-2,6a-methano[1,4]diazonino[9,1,2-cd]indolizine-9-carboxamide]: the values for the EC50 in series [1], in series [3] (setting [4]) and in series [3] (setting [5]) were 3.09 nM, 32.3 nM and 0.72 nM, respectively. The CC50 at 5 days in series [2] worked out at 5140 nM.

`O=C(NCc1c(F)cc(F)cc1F)c1c2n3c(c(O)c1=O)C(=O)N1CCCC[C@]3(CC2CO)C1` (single isomer, unassigned) [Compound 16]: the EC50 in series [1] came out at 2.8 nM. Besides, the CC50 at 5 days in series [2] turned out to be 7450 nM.

`O=C(NCc1c(F)cc(F)cc1F)c1c2n3c(c(O)c1=O)C(=O)N1CCCC[C@@]3(C[C@H]2F)C1` (single isomer, unassigned) [Compound 8-2] returned an EC50 in series [1] of 2.29 nM.

With `CO[C@H]1C=C[C@H](C)N2C[C@]13CCc1c(C(=O)NCc4ccc(F)cc4F)c(=O)c(O)c(n13)C2=O` [Compound 19-2, (1R,11S,14S)—N-[(2.4 difluorophenyl)methyl]-7-hydroxy-14-methoxy-11-methyl-6,9-dioxo-10,15-diazatetracyclo[6.6.1.11,10.04,15]hexadeca-4,7,12-triene-5-carboxamide], the EC50 in series [1] amounted to 0.86 nM. In series [2], this compound had a CC50 at 5 days of 1870 nM.

As to `CO[C@H]1C=C[C@H](C)N2C[C@]13CCc1c(C(=O)NCc4c(F)cc(F)cc4F)c(=O)c(O)c(n13)C2=O` [Compound 22, (3S,6S,6aR)-11-hydroxy-6-methoxy-3-methyl-1,10-dioxo-N-(2,4,6-trifluorobenzyl)-1,3,6,7,8,10-hexahydro-2,6a-methano[1,4]diazonino[9,1,2-cd]indolizine-9-carboxamide], the EC50 in series [1] was 1.8 nM. In series [2], this compound yielded a CC50 at 5 days of 1940 nM.

In series [1], `CO[C@H]1C=C[C@H](C)N2C[C@]13CC(O)c1c(C(=O)NCc4ccc(F)cc4F)c(=O)c(O)c(n13)C2=O` (stereo partly drawn) [Compound 19-3, (1R,11S,14S)—N-[(2.4 difluorophenyl)methyl]-3.7 dihydroxy-14-methoxy-11-methyl-6,9-dioxo-10,15-diazatetracyclo[6.6.1.11,10.04,15]hexadeca-4,7,12-triene-5-carboxamide] displayed an EC50 of 1.2 nM. In series [2], this compound returned a CC50 at 5 days of 6950 nM.

`O=C(NCc1cccc(Cl)c1F)c1c2n3c(c(O)c1=O)C(=O)N1CCCC[C@]3(CC2)C1` [Compound 6, (6aS)—N-(3-chloro-2-fluorobenzyl)-11-hydroxy-1,10-dioxo-1,3,4,5,6,7,8,10-octahydro-2,6a-methano[1,4]diazonino[9,1,2-cd]indolizine-9-carboxamide] gave an EC50 in series [1] of 2.6 nM. In series [2], this compound showed a CC50 at 5 days of 3680 nM.

In turn, `CO[C@@H]1[C@@H](OC)c2c(C(=O)NCc3c(F)cc(F)cc3F)c(=O)c(O)c3n2[C@@]12CCCCN(C2)C3=O` (single isomer, unassigned) [Compound 13-1] showed an EC50 in series [1] of 1.7 nM. Further, the 50% cytotoxic concentration (CC50) at 5 days in series [2] amounted to 27800 nM.

In the case of `CO[C@@H]1c2c(C(=O)NCc3c(F)cc(F)cc3F)c(=O)c(O)c3n2[C@@]2(CCCCN(C2)C3=O)[C@H]1OC` (single isomer, unassigned) [Compound 13-3], the EC50 in series [1] stood at 9.5 nM. Further, half-maximal cytotoxicity in series [2] (CC50 at 5 days) was put at 10100 nM.

For `CO[C@@H]1C[C@]23CCCCN(C2)C(=O)c2c(O)c(=O)c(C(=O)NCc4c(F)cc(F)cc4F)c1n23` (single isomer, unassigned) [Compound 12-4], in series [1], the EC50 worked out at 7.33 nM.

In turn, `CO[C@H]1CC[C@H](C)N2C[C@]13CCc1c(C(=O)NCc4ccc(F)cc4F)c(=O)c(O)c(n13)C2=O` [Compound 19-1, (1R,11S,14S)—N-[(2.4 difluorophenyl)methyl]-7-hydroxy-14-methoxy-11-methyl-6,9-dioxo-10,15-diazatetracyclo[6.6.1.11,10.04,15]hexadeca-4.7 diene-5-carboxamide] registered an EC50 in series [1] of 2.1 nM. In addition, the CC50 at 5 days in series [2] amounted to 4600 nM.

On to `C[C@H]1CC[C@H](O)[C@]23CCc4c(C(=O)NCc5c(F)cc(F)cc5F)c(=O)c(O)c(n42)C(=O)N1C3` [Compound 23-1, (3S,6S,6aR)-6,11-dihydroxy-3-methyl-1,10-dioxo-N-(2,4,6-trifluorobenzyl)-1,3,4,5,6,7,8,10-octahydro-2,6a-methano[1,4]diazonino[9,1,2-cd]indolizine-9-carboxamide], for which the EC50 in series [1] stood at 5.7 nM. Also, the half-maximal cytotoxic concentration (CC50) at 5 days in series [2] was determined as 26600 nM.

For `CO[C@@H]1[C@@H](OC)c2c(C(=O)NCc3c(F)cc(F)cc3F)c(=O)c(O)c3n2[C@]12CCCCN(C2)C3=O` (single isomer, unassigned) [Compound 13-4], the EC50 in series [1] was 10.7 nM. The CC50 at 5 days in series [2] stood at 30700 nM.
